{
  "source": "patent US10046048B2",
  "about": "“Homogenous suspension of immunopotentiating compounds and uses thereof” (GlaxoSmithKline Biologicals SA, priority 2009, dated 2018)",
  "key": {"RSV virus": {"test_system": "RSV virus", "experiment": "neutralizing titers (PRNT60), RSV model", "assay_type": "in vivo, respiratory syncytial virus (RSV)", "details": "Study 1; Balb/c mice; 25 μg dose", "excerpt": "Mice were bled retro-orbitally on day 28."}, "[1]": {"experiment": "matrix of surfactants and suspending agents, size distribution by Mastersizer", "assay_type": "physicochemical", "details": "vortexed, probe sonicated, homogenized", "procedure": "A number of surfactants and suspension agents were also evaluated. The matrix of surfactants and suspending agents, and the corresponding sizes distributions of the suspension particles are shown in the Table 1 below (D50, D90 (μm)).\nIn each experiment, 10 mg of Example 47 was mixed with 2 mL surfactant and 2 mL suspending agent. The mixtures were vortexed for 5 minutes, and probe sonicated at 3 W and homogenized for 2-4 minutes. The size distributions of the samples were measured using Mastersizer.\nNo visual size reduction was observed after sonication. Some size reduction was noticed visually after homogenization."}, "[2]": {"experiment": "aqueous solubility and chemical stability of Example 47", "assay_type": "physicochemical", "procedure": "Example 47 is a highly crystalline drug substance with very good chemical stability. Due to its extremely low aqueous solubility across full pH range (<0.5 μg/ml) and its high hydrophobic core structure, formulation with Alum (the only vaccine adjuvant licensed in the U.S.) is challenging. However, TLR7 agonist-Alum based vaccines could provide advantages, for example, induction of Th1 polarized response, and enhanced Serum Bactericidal Activity (SBA) and breath of coverage (e.g., MenB)."}, "[3]": {"experiment": "particle size after vortexing, sonication, mortar and pestle", "assay_type": "physicochemical", "details": "for average particle size: 2.5 mg/mL in 0.1% Tween 80 and 0.5% CMC, vortexing", "procedure": "A number of homogenization methods were evaluated, including vortexing, sonication, and mortar and pestle method.\nFor vortexing, Example 47 was suspended at 2.5 mg/mL in 0.1% Tween 80 and 0.5% carboxymethyl cellulose (CMC), followed by vortexing. The average particle size was ˜100 μm.\nFor sonication, Example 47 was suspended at 2.5 mg/mL in 0.1% Tween 80 and 0.5% CMC followed by vortexing. The mixture was then subject to probe sonication for 5 minutes (with ice at 3 W, maximum power based on vial size). Finally, the mixture was homogenized by a handheld homogenizer for a few minutes. The average particle size was ˜80 μm.\nIn mortar and pestle method, 10 mg of Example 47 was ground for 5 minutes using mortar and pestle, then suspended in 0.5% Tween 80. […] Size range for the larger peak was 1-100 μm."}, "[4]": {"experiment": "serum, injection site muscle and lymph node levels after intramuscular injection", "assay_type": "in vivo", "details": "mice, intramuscular 4 mpk with 3MenB/Alum; both DMSO (non-homogeneous) and homogeneous suspensions"}, "[5]": {"details": "0.5% CMC, 0.5% Sodium Lauryl Sulfate"}, "[6]": {"details": "0.5% HPC, 0.5% Sodium Lauryl Sulfate"}, "[7]": {"details": "0.5% HPMC, 0.5% Sodium Lauryl Sulfate"}, "[8]": {"details": "10 mg ground 5 minutes with mortar and pestle, suspended in 0.5% Tween 80"}},
  "data": [
    {"smiles": "Cc1ccc(CCc2cnc3c(N)nc4ccccc4c3c2)c(C)c1", "note": "[Example 47, 2-(2,4-dimethylphenethyl)benzo[f][1,7]naphthyridin-5-amine]", "values": [
      {"measurement": "neutralizing titers, comparison of doses", "setting": "RSV virus", "result": "Highest neutralizing titers"},
      {"measurement": "D50", "setting": "[1]; 0.5% CMC, 0.1% Tween 80", "result": 76.2, "unit": "μm"},
      {"measurement": "D90", "setting": "[1]; 0.5% CMC, 0.1% Tween 80", "result": 144.7, "unit": "μm"},
      {"measurement": "D50", "setting": "[1]; 0.5% CMC, 0.5% Pluronic F-68", "result": 49.1, "unit": "μm"},
      {"measurement": "D90", "setting": "[1]; 0.5% CMC, 0.5% Pluronic F-68", "result": 104.4, "unit": "μm"},
      {"measurement": "D50", "setting": "[1]; [5]", "result": 28.0, "unit": "μm"},
      {"measurement": "D90", "setting": "[1]; [5]", "result": 53.3, "unit": "μm"},
      {"measurement": "D50", "setting": "[1]; 0.5% CMC, 0.5% Tween 80", "result": 75.8, "unit": "μm"},
      {"measurement": "D90", "setting": "[1]; 0.5% CMC, 0.5% Tween 80", "result": 149.1, "unit": "μm"},
      {"measurement": "D50", "setting": "[1]; 0.5% HPC, 0.1% Tween 80", "result": 43.6, "unit": "μm"},
      {"measurement": "D90", "setting": "[1]; 0.5% HPC, 0.1% Tween 80", "result": 68.0, "unit": "μm"},
      {"measurement": "D50", "setting": "[1]; 0.5% HPC, 0.5% Pluronic F-68", "result": 35.8, "unit": "μm"},
      {"measurement": "D90", "setting": "[1]; 0.5% HPC, 0.5% Pluronic F-68", "result": 54.9, "unit": "μm"},
      {"measurement": "D50", "setting": "[1]; [6]", "result": 38.9, "unit": "μm"},
      {"measurement": "D90", "setting": "[1]; [6]", "result": 53.1, "unit": "μm"},
      {"measurement": "D50", "setting": "[1]; 0.5% HPC, 0.5% Tween 80", "result": 35.4, "unit": "μm"},
      {"measurement": "D90", "setting": "[1]; 0.5% HPC, 0.5% Tween 80", "result": 53.5, "unit": "μm"},
      {"measurement": "D50", "setting": "[1]; 0.5% HPMC, 0.1% Tween 80", "result": 25.8, "unit": "μm"},
      {"measurement": "D90", "setting": "[1]; 0.5% HPMC, 0.1% Tween 80", "result": 53.5, "unit": "μm"},
      {"measurement": "D50", "setting": "[1]; 0.5% HPMC, 0.5% Pluronic F-68", "result": 19.4, "unit": "μm"},
      {"measurement": "D90", "setting": "[1]; 0.5% HPMC, 0.5% Pluronic F-68", "result": 33.5, "unit": "μm"},
      {"measurement": "D50", "setting": "[1]; [7]", "result": 26.8, "unit": "μm"},
      {"measurement": "D90", "setting": "[1]; [7]", "result": 59.3, "unit": "μm"},
      {"measurement": "D50", "setting": "[1]; 0.5% HPMC, 0.5% Tween 80", "result": 27.5, "unit": "μm"},
      {"measurement": "D90", "setting": "[1]; 0.5% HPMC, 0.5% Tween 80", "result": 49.7, "unit": "μm"},
      {"measurement": "solubility", "setting": "[2]; aqueous media, across full pH range", "result": "< 0.5", "unit": "µg/mL"},
      {"measurement": "chemical stability", "setting": "[2]; crystalline drug substance", "result": "very good"},
      {"measurement": "average particle size", "setting": "[3]", "result": "~100", "unit": "μm"},
      {"measurement": "average particle size", "setting": "[3]; probe sonication 5 minutes, handheld homogenizer", "result": "~80", "unit": "μm"},
      {"measurement": "particle size peak (larger)", "setting": "[3]; [8]", "result": "~8", "unit": "μm"},
      {"measurement": "particle size peak (smaller)", "setting": "[3]; [8]", "result": 0.1, "unit": "μm"},
      {"measurement": "size range for the larger peak", "setting": "[3]; [8]", "result": "1-100 μm"},
      {"measurement": "systemic exposure", "setting": "[4]", "result": "low systemic exposure"}
    ]}
  ]
}
